The results in this text go back to article PMC10734500, “Anti-virulence and bactericidal activities of Stattic against Shigella sonnei” (Applied and Environmental Microbiology, 2023).

Assay [1] has as its target T1, GalU (Klebsiella oxytoca, UniProt A0A163UX09).
T1 construct: galUK.o in pET28a
Briefly: microscale thermophoresis (MST) with expressed GalU homolog. It counts as binding. (In general: In MST a laser heats a spot of the sample, and binding alters the fluorescence response.)

In assay [2] the target is T2, GalU (Shigella sonnei, UniProt Q3Z0V1).
T2 construct: intact galU gene in pET28a (His-tagged)
Briefly: microscale thermophoresis (MST) with purified GalU; supported by malachite green enzyme inhibition ([…] decrease at […]). It is filed as binding.

T1 sequence (A0A163UX09 entry or part of it): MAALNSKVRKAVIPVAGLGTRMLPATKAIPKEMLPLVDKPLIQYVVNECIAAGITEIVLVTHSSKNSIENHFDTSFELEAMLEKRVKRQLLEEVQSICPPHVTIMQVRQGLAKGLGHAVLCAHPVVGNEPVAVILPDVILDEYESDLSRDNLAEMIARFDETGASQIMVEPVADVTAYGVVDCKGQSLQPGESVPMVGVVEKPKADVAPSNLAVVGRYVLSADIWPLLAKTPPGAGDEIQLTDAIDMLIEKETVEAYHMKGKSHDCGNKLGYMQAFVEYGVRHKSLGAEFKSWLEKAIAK
T2 sequence (Q3Z0V1 entry or part of it): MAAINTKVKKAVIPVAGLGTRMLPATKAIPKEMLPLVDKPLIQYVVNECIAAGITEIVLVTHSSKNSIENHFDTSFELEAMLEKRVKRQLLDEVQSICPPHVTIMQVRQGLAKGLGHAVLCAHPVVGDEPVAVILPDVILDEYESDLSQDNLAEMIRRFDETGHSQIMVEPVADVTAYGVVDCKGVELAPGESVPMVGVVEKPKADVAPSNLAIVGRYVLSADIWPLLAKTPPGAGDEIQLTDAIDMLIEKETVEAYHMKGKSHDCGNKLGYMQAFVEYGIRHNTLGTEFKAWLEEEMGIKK

As usually defined, the Kd is the free concentration of one partner at which half of the binding sites on the other are occupied at equilibrium, for simple one-to-one binding. As for `O=[N+]([O-])c1ccc2c(c1)S(=O)(=O)C=C2` [Stattic], the Kd on GalU [1] is 50 ± 0.25 µM; on GalU [2] it was 20 ± 0.35 µM.
